Here are results for one compound from ChEMBL document CHEMBL3217504, “Potent growth inhibitory activity of ()-platencin towards multi-drug-resistant and extensively drug-resistant Mycobacterium tuberculosis” (2013).

Molecules are shown by their SMILES. Values after ≈ are worked out from the molar mass of the structure shown.

Common to all, as to assay type: functional
The test system of assay [1] is Mycobacterium tuberculosis. Kind of assay: Ratio of MBC99.9 to MIC for isoniazid, rifampicin, and rifabutin-resistant Mycobacterium tuberculosis LV2.
For assay [2], the system named is Mycobacterium tuberculosis. Kind of assay: Antimycobacterial activity against streptomycin, ethambutol, kanamycin, isoniazid, rifabutin, rifampicin, levofloxacin, and ciprofloxacin-resistant Mycobacterium tuberculosis LV19 by microbroth dilution method. (In broth dilution the organism is exposed to a series of concentrations in liquid medium.)
Assay [3] deals with Mycobacterium tuberculosis. Kind of assay: Ratio of MBC99.9 to MIC for streptomycin, ethambutol, kanamycin, isoniazid, rifabutin, rifampicin, levofloxacin, and ciprofloxacin-resistant Mycobacterium tuberculosis LV19.
Assay [4] has as its system Mycobacterium tuberculosis. In words: Antimycobacterial activity against isoniazid, rifampicin, and rifabutin-resistant Mycobacterium tuberculosis LV2 by microbroth dilution method.

The MIC is the smallest concentration in the dilution series that meets the test's criterion for growth inhibition. Consider `C=C1C[C@@]23C=CC(=O)[C@@](C)(CCC(=O)Nc4c(O)ccc(C(=O)O)c4O)[C@@H]2C[C@@H]1CC3` (racemic) [PLATENCIN], for which the Ratio in assay [1] and in assay [3] was more than 64 each time. For the same compound, the MIC in assay [2] and in assay [4] was 1 µg/mL (≈ 2.35 µM) throughout.
